Several values for one entry are separate records, joined by “and”; a condition that tells them apart may be missing. Equal values may be shown once.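 Method: 48-hour compound exposure of cells in 96-well plates, five concentrations, linear interpolation of endpoints. GI50 marks 50% less growth. TGI marks complete inhibition of growth.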
Assays:
Experiment in all cases: DTP human tumour cell line panel, 48 h
[1] = test system: SF-268 CNS
[2] = test system: PC-3 prostate
[3] = test system: OVCAR-3 ovarian
[4] = test system: TK-10 renal
[5] = test system: RPMI-8226 leukemia
[6] = test system: M14 melanoma
[7] = test system: SK-MEL-28 melanoma
[8] = test system: UACC-257 melanoma
[9] = test system: HOP-92 NSCLC
[10] = test system: MDA-MB-231 breast

SMILES	GI50 [1] [µM]	TGI [1]	GI50 [2]	TGI [2]	GI50 [3]	TGI [3]	GI50 [4] [µM]	TGI [4]	GI50 [5]	TGI [5] [µM]	GI50 [6] [µM]	TGI [6] [µM]	GI50 [7] [µM]	TGI [7] [µM]	GI50 [8] [µM]	TGI [8] [µM]	GI50 [9]	TGI [9] [µM]	GI50 [10]	TGI [10]
CC1(C)OC[C@@H]([C@@]2(CO[Si](C)(C)C(C)(C)C)CC=CC(=O)O2)O1	29	89.2 µM	19.6 µM	74.2 µM	15.9 µM	39.7 µM	18.3	40.7 µM	24.2 µM	80.5	20.9	50.7	21.8	48.9	13.8	33.2	14.1 µM	43.4	27.2 µM	59.9 µM
OC(C1=C/C(=C\c2ccncc2)c2ccccc21)c1ccncc1 (stereo not drawn)	–	57.3 µM	–	32.9 µM	–	31.7 µM	–	32.3 µM	–	22.4	–	27.8	–	34.6	–	19.1	–	49.7	–	23.4 µM
c1ccc(C(=NNc2nc3ccccc3o2)c2ccccn2)nc1	0.0551	22.9 µM and 2.38 µM	0.0436 µM	26.6 µM and 13.8 µM	< 0.0218 µM and 0.035 µM	14.5 µM and 16.9 µM	0.0673	> 100 µM and 17.5 µM	0.047 µM	–	0.0418	–	0.124	48.6	0.163	0.633	0.0751 µM	–	0.0693 µM	21.6 µM and 17.7 µM
N#CC1=C(N)N=C(N2CCCCC2)C(C#N)C12Nc1ccccc1S2 (stereo not drawn)	18.9	67.2 µM	50.5 µM	> 100 µM	–	–	29.6	> 100 µM	84 µM	> 100	19.1	46.8	26.6	> 100	20.9	51	26.9 µM	> 100	17.1 µM	58.7 µM
CC([C@H]1CCC2C3CCC4C[C@@H](NC=O)CC[C@]4(C)C3CC[C@@]21C)N(C)C (stereo partly drawn)	1.7	3.93 µM	2.47 µM	16.4 µM	2.55 µM	9.01 µM	10.1	24.7 µM	1.91 µM	6.6	1.87	3.55	1.65	3.08	2.57	6.24	1.13 µM	7.61	2.38 µM	5.89 µM
C=C(Cl)COC(=O)Nc1cccc(Cl)c1	–	> 100 µM	–	84.6 µM	–	> 100 µM	–	> 100 µM	–	> 100	–	> 100	–	> 100	–	> 100	–	64.9	–	> 100 µM
O=C1CCCCCCCC/C=C/CCC(c2ccco2)O1 (stereo not drawn)	44.3	> 100 µM	77.8 µM	> 100 µM	39.4 µM	> 100 µM	23.5	> 100 µM	13.6 µM	37.6	67.7	> 100	73.3	> 100	> 100	> 100	50.5 µM	> 100	40 µM	97.6 µM
Cc1ccccc1CN1CC2=C(CCN(Cc3ccccc3)C2=O)N2CCN=C12	–	> 100 µM	–	> 100 µM	–	> 87 µM	–	> 100 µM	–	> 100	–	> 100	–	> 100	–	> 100	–	> 100	–	> 80 µM
CCOC(=O)Cc1csc(/N=C2\NC(=O)/C(=C3\C(=O)N(C)c4ccccc43)S2)n1	45.2	> 100 µM	34.1 µM	> 100 µM	28.2 µM	72.7 µM	31.9	> 100 µM	32.4 µM	> 100	–	–	80.3	> 100	79.1	> 100	52.3 µM	> 100	37.4 µM	> 100 µM
N#CC1=C(N)NC(=S)NC12Nc1ccccc1O2 (stereo not drawn)	51.2	> 100 µM	28.6 µM	> 100 µM	36.4 µM	> 100 µM	42.5	> 100 µM	21.9 µM	62.7	26	> 100	45.7	> 100	35.3	> 100	> 100 µM	> 100	19.3 µM	76.7 µM
CC1(C)NCCC[C@]2(C)[C@H]3C=CC4=C5C[C@](C)(CO)CC[C@]5(C)CC[C@@]4(C)[C@]3(C)CC[C@@H]12	3.27	11.6 µM	3.05 µM	12.3 µM	2.69 µM	7.06 µM	2.66	7.15 µM	3.91 µM	14.9	3.91	14.8	5.87	18.4	5.24	17	3.1 µM	14.6	14.5 µM	29.3 µM
C=C1C[C@@H]2C/C=C/C(=O)C/C(C)=C\C=C\C(=O)O[C@H](C=O)C/C(C)=C/[C@H](C1)O2	1.39	19.6 µM	0.354 µM	21.4 µM	0.557 µM	24.4 µM	3.62	18 µM	0.295 µM	3.29	0.281	0.738	2.91	20.5	14.1	34.7	0.367 µM	2.34	3.69 µM	13.1 µM
COc1ccc(/C=C\c2cc(OC)c(OC)c(OC)c2)cc1OC(=O)C(N)CCC(=O)O (stereo not drawn)	–	–	0.00125 µM and 0.000357 µM	–	0.000393 µM	–	–	> 100 µM	0.000691 µM and < 0.0316 µM	–	0.000565	–	–	> 59	0.000603	22.8	0.00298 µM and 0.000791 µM	0.0086	0.00211 µM and 0.00795 µM	–
c1cc2c(cc1C(N1CCNCC1)N1CCNCC1)OCO2	–	> 100 µM	–	> 100 µM	–	> 100 µM	–	> 100 µM	–	> 100	–	> 100	–	> 100	–	> 100	–	> 100	–	> 100 µM
C=C1CC[C@@]2(C#N)[C@H]3[C@H](CC[C@@H]2C)[C@@H](C)C[C@@H](CC(C)(C)C#N)[C@H]13	2.34	35.3 µM	0.283 µM	30.5 µM	2.88 µM	28.8 µM	0.969	31.5 µM	0.589 µM	26.3	1.48	12.5	2.63	44.2	8.3	56.4	0.2 µM	0.68	6.1 µM	35.8 µM
O=[N+]([O-])c1ccc(-c2nc(N(CCO)CCO)c3ccccc3n2)o1	0.211	1.52 µM	0.293 µM	2.84 µM	0.235 µM	1.43 µM	0.286	–	0.567 µM	> 21.3	0.143	0.316	0.877	2.41	0.189	0.453	0.247 µM	0.831	1.08 µM	4.25 µM
Cc1cccc(C)c1NC(=O)/C(Cl)=C(/Cl)C(=O)O	–	32.6 µM	–	50.4 µM	–	41.8 µM	–	21.6 µM	–	37.1	–	12.6	–	35.1	–	29.8	–	30.3	–	41.7 µM
COc1c(C)c2c(c(O)c1C/C=C(\C)CCC(=O)OCCN1CCOCC1)C(=O)OC2	0.532	> 100 µM	0.562 µM	> 100 µM	0.348 µM	> 100 µM	> 24.7	> 100 µM	0.891 µM	> 100	0.29	> 100	0.236	> 100	0.573	> 100	5.18 µM	> 100	3.48 µM	> 100 µM
COc1cc(Cl)cc(-c2nn(C(=O)NCCN3CCN(C)CC3)cc2-c2ccncc2)c1	7.35	> 100 µM	19.5 µM	> 100 µM	23.6 µM	85.9 µM	3.67	> 100 µM	21.9 µM	> 100	9.46	29.3	5.31	40.6	20.5	> 100	2.83 µM	26.2	9.7 µM	43.5 µM
N#Cc1ccccc1NC(=O)/C(=N\NC(=O)c1ccncc1)C(c1cnc2ccc([N+](=O)[O-])cc2n1)[N+](=O)[O-] (stereo not drawn)	–	> 100 µM	–	> 100 µM	–	> 100 µM	–	> 100 µM	–	> 100	–	> 100	–	> 100	–	> 100	–	> 100	–	> 100 µM
N=C1c2nc3n(c2C(=O)c2nc4n(c21)CCCC4)CCCC3	11.9	> 74.9 µM	> 68.8 µM	> 100 µM	27.1 µM	> 100 µM	52.6	> 100 µM	27.5 µM	> 100	1.82	3.29	1.84	3.7	1.67	4.81	52.8 µM	> 100	33.6 µM	> 100 µM
CN(C)CCCN=C(N)N	–	> 100 µM	–	> 100 µM	–	> 100 µM	–	> 100 µM	–	> 100	–	> 100	–	> 100	–	> 100	–	> 100	–	> 100 µM
COC(=O)COc1ccc(/C=C2\N=C(c3ccccc3)N(c3cc(C(F)(F)F)ccc3Cl)C2=O)cc1	48.4	> 100 µM	44.8 µM	> 100 µM	26.1 µM	96.8 µM	> 100	> 100 µM	19 µM	46.1	50.6	> 100	> 100	> 100	–	–	75.9 µM	> 100	> 100 µM	> 100 µM
c1ccc2[nH]c(SSc3nc4ncncc4[nH]3)nc2c1	4.13	> 100 µM	5.37 µM	> 100 µM	0.579 µM	> 100 µM	0.364	> 37.3 µM	0.709 µM	> 100	0.347	82.1	27.8	> 100	4.97	> 75.2	0.375 µM	> 90.8	2.9 µM	> 100 µM
COC1/C=C\C=C(/C)C(=O)Nc2cc3nc4ccc(Br)cc4oc-3c(c2=O)CC(C)CC(OC)C(O)C(C)/C=C(\C)C1OC(N)=O (stereo not drawn)	–	18.1 µM	0.00574 µM	24.5 µM	–	3.84 µM	0.00681	17.6 µM	0.00867 µM	16	0.00414	5.33	0.000391	–	0.00321	6.93	0.00757 µM	4.81	0.0321 µM	11.5 µM
CCN1C(=O)N(CC)C2C1NN=c1s/c(=C3\C(=O)N(CC(C)C)c4ccccc43)c(=O)n12 (stereo not drawn)	1.32	> 59.9 µM	0.514 µM	> 100 µM	0.284 µM	0.799 µM	8.08	> 56.6 µM	1.42 µM	> 100	0.445	> 100	3.28	> 100	–	> 100	4.04 µM	> 64.1	2.05 µM	> 30.6 µM
CCC1=C[C@@H]2CN(C1)Cc1c([nH]c3ccccc13)[C@@](C(=O)OC)(c1cc3c(cc1OC)N(C=O)[C@H]1[C@@](O)(C(=O)OC)[C@H](OC(C)=O)[C@]4(CC)[C@@H]5C[C@@H]5CN5CC[C@]31[C@@H]54)C2	0.00111	> 6.25 µM	0.000826 µM	> 6.25 µM	< 0.000625 µM	–	0.315	> 6.25 µM	< 0.000625 µM	> 6.25	0.00169	0.0643	0.0014	> 6.25	> 6.25	> 6.25	0.00629 µM	0.226	0.00112 µM	–
CC(C)(C)C(=O)Nc1ccccc1I(=O)=O	> 100	> 100 µM	> 100 µM	> 100 µM	> 100 µM	> 100 µM	> 100	> 100 µM	> 100 µM	> 100	–	–	> 100	> 100	> 100	> 100	> 100 µM	> 100	> 100 µM	> 100 µM

From PubChem BioAssay (NCI)
